The target in this assay is T1, SARS-CoV-2 M^pro (Severe acute respiratory syndrome coronavirus 2, UniProt P0DTD1).
T1 construct: covers ORF1ab polyprotein residues 3264–3569; N-terminal leader ending in the Mpro autocleavage site (SAVLQ*SGFRK) (N, cleaved yes); made in house; host or cells: Escherichia coli BL21 (DE3), pET100D-Topo vector
Description: Fluorescence-based cleavage assay with AFC-peptide substrate, IC50 against M^pro. The class given is biochemical.

Like-named read-outs stand apart in the source and are kept apart here.

Description: For the determination of half-maximal inhibitory concentrations (IC50) of inhibitors against M^pro, an AFC-Peptide substrate (SAE0180, Merck) was used for a fluorescence-based cleavage assay [66]. The assay was performed in half area 96-well, black, flat-bottomed microtiter plates (Corstar, Corning, Glendale, CA, USA) with a final volume of 125 μL. M^pro (final concentrations of 5–50 nM) was pre-incubated for 1 h at 25 °C with compounds at different concentrations in the assay buffer (PBS, pH 7.5). […] The readings for the different concentrations of the inhibitor compounds incubated with the substrate without M^Pro were measured as a blank. […] The results were plotted as dose inhibition curves using nonlinear regression with a variable slope to determine the IC50 values of inhibitor compounds using GraphPad Prism 9.0.

For the molecule `Cc1cc(C)cc(NC(=O)[Se]Cc2ccc(S(N)(=O)=O)cc2)c1` [Cmp. 3c, Se-(4-Sulfamoylbenzyl) (3,5-Dimethylphenyl) Carbamoselenoate], the IC50 (recombinant M^pro 5-50 nM, 1 h pre-incubation at 25 °C, AFC-peptide substrate 12 μM, PBS pH 7.5, mean ± SD (n = 3), read-out: IC50 against M^pro) was found to be 704 nM.

In turn, `Cc1ccc(NC(=O)[Se]c2ccccc2)cc1` [Cmp. 3b] yielded an IC50 of 1040 ± 47 nM.

These data come from paper PMC10815619, “Leveraging SARS-CoV-2 Main Protease (M^pro) for COVID-19 Mitigation with Selenium-Based Inhibitors” (International Journal of Molecular Sciences, 2024).
